Results on 4 compounds are retold here after PMC11772769, “Selective cargo and membrane recognition by SNX17 regulates its interaction with Retriever” (EMBO Reports, 2024).

The target of one assay is T1, VPS29 (Homo sapiens, UniProt Q9UBQ0).
T1 construct: GST (N, cleaved yes); made in house; host or cells: Escherichia coli BL21(DE3)
Nature of the assay: Fluorescence anisotropy binding of 5-FAM SNX17CT-18 to VPS29. The conditions noted are these: 0.1 μM 5-FAM peptide, pH 7.5, 300 mM NaCl, 25 °C, two technical replicates (Fig. 3D). As to the method:
(§1) Lyophilized peptides were resuspended in 100 mM Hepes pH 8.0 at 5 mg/ml and further diluted in the assay buffer (50 mM Hepes pH 7.5, 300 mM NaCl, and 1 mM DTT). […] The mixture was incubated at 25 °C for at least 30 min and then transferred to 96 Flat Black plates. Fluorescence anisotropy was measured at 25 °C using Spark 10M Plate Reader (Tecan) with a 485/20 excitation filter and a 535/35 emission filter. The dissociation constants were calculated in GraphPad Prism by nonlinear regression fitting of the experimental data to a one-site total binding model. The final KD measurement is the mean of at least two independent experiments.
Background: Fluorescence polarisation rises when a labelled molecule tumbles more slowly, as on binding a larger partner.

A further assay deals with T2, MBP-SNX17 WT (Homo sapiens, UniProt Q15036).
T2 construct: M protein marker, R Retriever complex, FL full-length; His (N, cleaved yes); made in house; host or cells: Escherichia coli BL21(DE3)
T2 sequence (Q15036 1-470): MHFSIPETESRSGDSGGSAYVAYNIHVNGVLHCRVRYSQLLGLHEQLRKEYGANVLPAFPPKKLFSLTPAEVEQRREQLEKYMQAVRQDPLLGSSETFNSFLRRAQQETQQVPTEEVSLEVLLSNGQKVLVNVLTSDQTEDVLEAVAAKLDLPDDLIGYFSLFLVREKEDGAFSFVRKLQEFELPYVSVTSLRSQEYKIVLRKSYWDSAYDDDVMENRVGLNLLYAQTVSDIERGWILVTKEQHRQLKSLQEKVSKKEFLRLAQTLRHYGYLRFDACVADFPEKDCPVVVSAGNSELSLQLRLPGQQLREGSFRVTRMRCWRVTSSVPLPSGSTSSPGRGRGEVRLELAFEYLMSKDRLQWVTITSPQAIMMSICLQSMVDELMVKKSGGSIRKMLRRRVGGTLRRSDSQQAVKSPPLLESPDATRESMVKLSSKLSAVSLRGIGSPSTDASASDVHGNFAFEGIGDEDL
The experiment in a line: Fluorescence anisotropy binding of 5-FAM peptides to MBP-SNX17 wild-type. As to the method:
as §1

The target in a further assay is T3, VPS26C (Homo sapiens, UniProt O14972).
T3 construct: His-Sumo3 (N, cleaved yes); made in house; host or cells: Escherichia coli BL21(DE3)
The experiment in a line: Fluorescence anisotropy binding of 5-FAM SNX17CT-18 to VPS26C. The conditions noted are these: 0.1 μM 5-FAM peptide, pH 7.5, 300 mM NaCl, 25 °C, two technical replicates (Fig. 3D). As to the method: as §1

For the next assay, the target named is T4, VPS35L-VPS29 (Homo sapiens, UniProt Q7Z3J2+Q9UBQ0).
T4 construct: His (N, cleaved yes); made in house; host or cells: High Five insect cells (baculovirus)
Nature of the assay: Fluorescence anisotropy binding of 5-FAM SNX17CT-18 to VPS35L-VPS29. The conditions noted are these: 0.1 μM 5-FAM peptide, pH 7.5, 300 mM NaCl, 25 °C, two technical replicates (Fig. 3D). The protocol:
as §1

Assay [1] addresses T5, SNX17FERM-CT (amino acids 109-470) (Homo sapiens, UniProt Q15036).
T5 construct: His-Sumo3 (N, cleaved yes); made in house; host or cells: Escherichia coli BL21(DE3)
T5 sequence (Q15036 109-470): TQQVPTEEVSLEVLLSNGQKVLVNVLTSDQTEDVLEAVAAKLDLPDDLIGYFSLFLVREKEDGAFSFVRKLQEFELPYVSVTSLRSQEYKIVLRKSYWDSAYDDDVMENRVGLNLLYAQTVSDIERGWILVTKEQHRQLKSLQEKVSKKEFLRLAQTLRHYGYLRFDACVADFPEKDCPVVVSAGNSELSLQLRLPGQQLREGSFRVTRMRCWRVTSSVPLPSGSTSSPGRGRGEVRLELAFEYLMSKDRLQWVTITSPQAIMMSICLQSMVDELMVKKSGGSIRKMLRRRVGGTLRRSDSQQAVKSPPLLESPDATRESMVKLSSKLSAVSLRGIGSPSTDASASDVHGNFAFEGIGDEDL
The experiment in a line: Fluorescence anisotropy binding of 5-FAM cargo peptides to SNX17FERM-CT. Particulars: read-out: KD SNX17FERM-CT. The protocol: as §1

The next assay concerns the target T6, MBP-SNX17V380D (Homo sapiens, UniProt Q15036, V380D).
T6 construct: M protein marker, R Retriever complex, FL full-length; His (N, cleaved yes); made in house; host or cells: Escherichia coli BL21(DE3)
T6 sequence (Q15036 1-470 V380D): T2 sequence (Q15036 1-470) with V380D
The experiment in a line: Fluorescence anisotropy binding of 5-FAM peptides to MBP-SNX17 V380D. As to the method:
as §1

The next assay deals with MBP (Escherichia coli, UniProt P0AEX9). The experiment in a line: Fluorescence anisotropy, MBP negative control. It is filed as binding. The protocol: as §1
A further assay concerns the target T7, MBP-SNX17W321A (Homo sapiens, UniProt Q15036, W321A).
T7 construct: M protein marker, R Retriever complex, FL full-length; His (N, cleaved yes); made in house; host or cells: Escherichia coli BL21(DE3)
T7 sequence (Q15036 1-470 W321A): T2 sequence (Q15036 1-470) with W321A
The experiment in a line: Fluorescence anisotropy binding of 5-FAM peptides to MBP-SNX17 W321A. The protocol: as §1

The target in the next assay is T8, MBP-SNX17 L470G (Homo sapiens, UniProt Q15036, L470G).
T8 construct: M protein marker, R Retriever complex, FL full-length; His (N, cleaved yes); made in house; host or cells: Escherichia coli BL21(DE3)
T8 sequence (Q15036 1-470 L470G): T2 sequence (Q15036 1-470) with L470G
The experiment in a line: Fluorescence anisotropy binding of 5-FAM cargo peptides to MBP-SNX17 L470G. The protocol:
as §1, with “The peptides used for binding assays were synthesized with an N-terminal 5-Carboxyfluorescein (FAM) and HPLC purified (≥95%) by GenScript. Lyophilized” for “Lyophilized”

Where a chain is given by its changes, count along the chain named. Like-named read-outs stand apart in the source and are kept apart here. Where no end group is shown, it is not given here. Bounds are passed on as bounds.

In the case of `CC[C@H](C)[C@H](NC(=O)CNC(=O)[C@H](CCC(=O)O)NC(=O)[C@H](Cc1ccccc1)NC(=O)[C@H](C)NC(=O)[C@H](Cc1ccccc1)NC(=O)[C@H](CC(N)=O)NC(=O)CNC(=O)[C@H](Cc1c[nH]cn1)NC(=O)[C@@H](NC(=O)[C@H](CC(=O)O)NC(=O)[C@H](CO)NC(=O)[C@H](C)NC(=O)c1ccc2c(c1)C(=O)OC21c2ccc(O)cc2Oc2cc(O)ccc21)C(C)C)C(=O)NCC(=O)N[C@@H](CC(=O)O)C(=O)N[C@@H](CCC(=O)O)C(=O)N[C@@H](CC(=O)O)C(=O)N[C@@H](CC(C)C)C(=O)O` [SNX17CT-18], at VPS29, the “KD VPS29” value is on record as “no discernible binding”. The “KD MBP-SNX17 WT” value on MBP-SNX17 WT (fluorescence anisotropy, 0.1 μM 5-FAM peptide, pH 7.5, 300 mM NaCl, 25 °C, one-site total binding, Bmax fixed at 240, mean ± SD of three biological replicates (Fig. 4E)) is on record as “binds weakly”. For the same compound, at VPS26C, the “KD VPS26C” value is recorded as “no discernible binding”. In addition, at VPS35L-VPS29, the “KD VPS35L-VPS29” value is given as “weak interaction”.
For the compound KWDTGENPIYKSAV [ITGB1 P-14-mer], the Kd – broadly, the equilibrium constant for the complex coming apart – in assay [1] is 72.5 µM.
For the compound MNVEIGNPTYKMYE [LRP1 14-mer], the Kd is > 32 µM at MBP-SNX17V380D (0.1 μM 5-FAM peptide, pH 7.5, 300 mM NaCl, 25 °C, one-site total binding, Bmax fixed at 240, three biological replicates (Fig. 4E)); > 32 µM on MBP-SNX17V380D (5-FAM peptide, Bmax fixed at 240, replicate Y1 (Fig. 4E source data), read-out: KD MBP-SNX17V380D); > 32 µM on MBP-SNX17V380D (5-FAM peptide, Bmax fixed at 240, replicate Y2 (Fig. 4E source data), read-out: KD MBP-SNX17V380D); > 32 µM on MBP-SNX17V380D (5-FAM peptide, Bmax fixed at 240, replicate Y3 (Fig. 4E source data), read-out: KD MBP-SNX17V380D); > 32 µM on MBP (0.1 μM 5-FAM peptide, pH 7.5, 300 mM NaCl, 25 °C (Fig. EV3B), read-out: KD MBP (negative control)); > 32 µM at MBP (5-FAM peptide, replicate Y1 (Fig. 4E source data), read-out: KD MBP). For the same compound, the Kd at MBP (5-FAM peptide, replicate Y2 (Fig. 4E source data), read-out: KD MBP) was > 32 µM; on MBP (5-FAM peptide, replicate Y3 (Fig. 4E source data), read-out: KD MBP), > 32 µM; on MBP-SNX17W321A, > 32 µM; at MBP-SNX17W321A (read-out: KD MBP-SNX17W321A, fluorescence anisotropy, 5-FAM peptide, Bmax fixed at 240, replicate Y2 (Fig. 4E source data)), > 32 µM; in assay [1], 2.23 µM; at MBP-SNX17 WT, 3 µM. Moreover, the affinity on MBP-SNX17 L470G, expressed as Kd, was 2.8 ± 0.2 µM.
With QQNGYENPTYKFFE [APP 14-mer], in assay [1], the dissociation constant Kd came out at 19.1 µM.
